Counter-ions that a name gives are not always drawn.
Tested on: hair cells
Assay: Hair cell toxicity assay in zebrafish (neomycin-induced hair cell death, DASPEI staining of neuromasts)
Assay type: in vivo
Conditions: Danio rerio; for Emax at 25 µM: maximum observed @ 25 μM test compound; for Emax at 25 µM / Emax at 8.3 µM / Emax at 2.8 µM: 200 micromolar neomycin, read-out: Max HC Protection (HCmax, % hair cell survival); for EC50: zebrafish larvae 5-7 dpf, 1 h pre-treatment, then 200 micromolar neomycin + test compound 30 min, read-out: HC50 (concentration that would produce 50% hair cell survival); for Emax at 8.3 µM: maximum observed @ 8.3 μM test compound; for Emax at 2.8 µM: maximum observed @ 2.8 μM test compound
Procedure, shortened: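 Zebrafish larvae 5-7 dpf pre-treated 1 h with compound (0.010-25 μM), then 30 min with 200 μM neomycin plus compound. DASPEI stained 10 neuromasts per fish, scored 0-2 (total 0-20), normalised to vehicle controls as % hair cell survival. HC50 linearly interpolated if survival reached ≥50%; HCmax is maximum survival.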

| Structure (SMILES) | Emax at 25 µM [%] | EC50 [µM] | Emax at 8.3 µM [%] | Emax at 2.8 µM [%] |
| --- | --- | --- | --- | --- |
| CCN1CCc2c(sc(NC(=O)Nc3cnc4ccccc4c3)c2C(N)=O)C1 [Example 78, 6-Ethyl-2-[3-(quinolin-3-yl)ureido]-4,5,6,7-tetrahydrothieno[2,3-c]pyridine-3-carboxamide dihydrochloride] | 52 | > 10 | – | – |
| CC[N+]1(C)CCc2c(sc(NC(=O)Nc3ccc(Br)cc3)c2C(N)=O)C1 (centres unmarked) [Example 220, 2-{[(4-bromophenyl)carbamoyl]amino}-3-carbamoyl-6-ethyl-6-methyl-4H,5H,6H,7H-thieno[2,3-c]pyridin-6-ium] | 98 | < 1 | – | – |
| CCN1CCc2c(sc(Nc3c(Nc4ccc(Cl)cc4)c(=O)c3=O)c2C(N)=O)C1 [Example 109, 2-({2-[(4-chlorophenyl)amino]-3,4-dioxocyclobut-1-en-1-yl}amino)-6-ethyl-4,5,6,7-tetrahydrothieno[2,3-c]pyridine-3-carboxamide hydrochloride] | 22 | – | – | – |
| NC(=O)c1c(NC(=O)Nc2ccc(Cl)cc2)sc2c1CCN1CCCCC21 (racemic) [Example 118, (+/−)-2-[3-(4-Chlorophenyl)ureido]-5,7,8,9,10,10a-hexahydro-4H-thieno[2,3-a]quinolizine-3-carboxamide hydrochloride] | 99 | 1 to 10 | – | – |
| CC[N+]1(CC)CCc2c(sc(NC(=O)Nc3ccc(Cl)cc3)c2C(N)=O)C1 [Example 139, 3-Carbamoyl-2-[3-(4-chlorophenyl)ureido]-6,6-diethyl-4,5,6,7-tetrahydrothieno[2,3-c]pyridin-6-ium iodide] | 99 | < 1 | – | – |
| NC(=O)c1c(NC(=O)Nc2ccc(Cl)cc2)sc2c1CCN(C1CCNC1)C2 (racemic) [Example 7, (+/−)-2-[3-(4-Chlorophenyl)ureido]-6-(pyrrolidin-3-yl)-4,5,6,7-tetrahydrothieno[2,3-c]pyridine-3-carboxamide dihydrochloride] | 78 | 1 to 10 | – | – |
| CCN1CCc2c(sc(NC(=O)Nc3ccc(Cl)cc3)c2C(=O)NCC(F)(F)F)C1 [Example 96, 2-[3-(4-Chlorophenyl)ureido]-6-ethyl-N-(2,2,2-trifluoroethyl)-4,5,6,7-tetrahydrothieno[2,3-c]pyridine-3-carboxamide hydrochloride] | – | 1 to 10 | 57 | – |
| CCN1CCc2c(sc(NC(=O)Nc3ccc(C(F)(F)F)cc3)c2C(N)=O)C1 [Example 221, 6-ethyl-2-({[4-(trifluoromethyl)phenyl]carbamoyl}amino)-4H,5H,6H,7H-thieno[2,3-c]pyridine-3-carboxamide] | 68 | 1 to 10 | – | – |
| CC1(CN2CCc3c(sc(NC(=O)Nc4ccc(Cl)cc4)c3C(N)=O)C2)CCC1 [Example 24, 2-[3-(4-Chlorophenyl)ureido]-6-[(1-methylcyclobutyl)methyl]-4,5,6,7-tetrahydrothieno[2,3-c]pyridine-3-carboxamide trifluoroacetate] | – | 1 to 10 | – | 54 |
| CCN1CCc2c(sc(NC(=O)Nc3ccc(C(=O)OC)cc3)c2C(N)=O)C1 [Example 31, Methyl 4-[3-(3-carbamoyl-6-ethyl-4,5,6,7-tetrahydrothieno[2,3-c]pyridin-2-yl)ureido]benzoate trifluoroacetate] | 22 | – | – | – |
| C[N+]1(C)CCc2c(sc(NC(=O)Nc3ccc(Cl)cc3)c2C(N)=O)C1 [Example 162, 3-Carbamoyl-2-[3-(4-chlorophenyl)ureido]-6,6-dimethyl-4,5,6,7-tetrahydrothieno[2,3-c]pyridin-6-ium trifluoroacetate] | – | – | – | 36 |
| NC(=O)c1c(NC(=O)Nc2ccc(Cl)cc2)sc2c1CCN(CC(F)(F)F)C2 [Example 89, 2-[3-(4-Chlorophenyl)ureido]-6-(2,2,2-trifluoroethyl)-4,5,6,7-tetrahydrothieno[2,3-c]pyridine-3-carboxamide] | – | – | 18 | – |
| CC(C)(O)C[N+]1(C)CCc2c(sc(NC(=O)Nc3ccc(Cl)cc3)c2C(N)=O)C1 (centres unmarked) [Example 202, 3-Carbamoyl-2-[3-(4-chlorophenyl)ureido]-6-(2-hydroxy-2-methylpropyl)-6-methyl-4,5,6,7-tetrahydrothieno[2,3-c]pyridin-6-ium iodide] | – | < 1 | 85 | – |
| NC(=O)c1c(NC(=O)Nc2ccc(Cl)cc2)sc2c1CC1CCC2N1CC1CCC1 (racemic) [Example 132, (+/−)-2-[3-(4-Chlorophenyl)ureido]-9-(cyclobutylmethyl)-5,6,7,8-tetrahydro-4H-5,8-epiminocyclohepta[b]thiophene-3-carboxamide hydrochloride] | – | < 1 | – | 97 |
| NC(=O)c1c(NC(=O)Nc2ccc(Cl)cc2)sc2c1CC[N+]1(CCCC1)C2 [Example 138, 3′-Carbamoyl-2′-[3-(4-chlorophenyl)ureido]-5′,7′-dihydro-4′H-spiro[pyrrolidine-1,6′-thieno[2,3-c]pyridin]-1-ium bromide] | 94 | < 1 | – | – |
| CCN1CCc2c(sc(NC(=O)Nc3ccc(C(=O)c4ccccc4)cc3)c2C(N)=O)C1 [Example 88, 2-[3-(4-Benzoylphenyl)ureido]-6-ethyl-4,5,6,7-tetrahydrothieno[2,3-c]pyridine-3-carboxamide] | 88 | 1 to 10 | – | – |
| CCN1CCc2c(sc(NC(=O)NC3CCCCC3)c2C(N)=O)C1 [Example 68, 2-(3-Cyclohexylureido)-6-ethyl-4,5,6,7-tetrahydrothieno[2,3-c]pyridine-3-carboxamide hydrochloride] | 5 | – | – | – |
| CC(C)N1CCc2c(sc(NC(=O)Nc3ccc(Cl)cc3)c2C(N)=O)C1 [Example 2, 2-[3-(4-Chlorophenyl)ureido]-6-isopropyl-4,5,6,7-tetrahydrothieno[2,3-c]pyridine-3-carboxamide hydrochloride] | 84 | 1 to 10 | – | – |
| CC[N+]1(CCCC(=O)OC(C)(C)C)CCc2c(sc(NC(=O)Nc3ccc(Cl)cc3)c2C(N)=O)C1 (centres unmarked) [Example 198, 6-[4-(tert-Butoxy)-4-oxobutyl]-3-carbamoyl-2-[3-(4-chlorophenyl)ureido]-6-ethyl-4,5,6,7-tetrahydrothieno[2,3-c]pyridin-6-ium trifluoroacetate] | – | < 1 | – | 89 |
| CCN1CCc2c(sc(NC(=O)Nc3ccc(Cl)c4ccccc34)c2C(N)=O)C1 [Example 228, 2-{[(4-chloronaphthalen-1-yl)carbamoyl]amino}-6-ethyl-4H,5H,6H,7H-thieno[2,3-c]pyridine-3-carboxamide] | 93 | 1 to 10 | – | – |
| CCN1CCc2c(sc(NC(=O)Nc3cccc(F)c3)c2C(N)=O)C1 [Example 71, 6-Ethyl-2-[3-(3-fluorophenyl)ureido]-4,5,6,7-tetrahydrothieno[2,3-c]pyridine-3-carboxamide hydrochloride] | 45 | – | – | – |
| CN1C(C)(C)Cc2c(sc(NC(=O)Nc3ccc(Cl)cc3)c2C(N)=O)C1(C)C [Example 120, 2-[3-(4-chlorophenyl)ureido]-5,5,6,7,7-pentamethyl-4,5,6,7-tetrahydrothieno[2,3-c]pyridine-3-carboxamide hydrochloride] | – | 1 to 10 | – | 81 |
| CCN1CCc2c(sc(NC(=O)Nc3ccc(F)c(F)c3)c2C(N)=O)C1 [Example 70, 2-[3-(3,4-Difluorophenyl)ureido]-6-ethyl-4,5,6,7-tetrahydrothieno[2,3-c]pyridine-3-carboxamide hydrochloride] | 64 | 1 to 10 | – | – |
| CCOC(=O)CCC[N+]1(C)CCc2c(sc(NC(=O)Nc3ccc(Cl)cc3)c2C(N)=O)C1 (centres unmarked) [Example 161, 3-Carbamoyl-2-[3-(4-chlorophenyl)ureido]-6-(4-ethoxy-4-oxobutyl)-6-methyl-4,5,6,7-tetrahydrothieno[2,3-c]pyridin-6-ium iodide] | – | < 1 | – | 87 |
| C[N+]1(CCCC(=O)O)CCc2c(sc(NC(=O)Nc3ccc(Cl)cc3)c2C(N)=O)C1 (centres unmarked) [Example 149, 3-Carbamoyl-6-(3-carboxypropyl)-2-[3-(4-chlorophenyl)ureido]-6-methyl-4,5,6,7-tetrahydrothieno[2,3-c]pyridin-6-ium trifluoroacetate] | 24 | – | – | – |
| NC(=O)c1c(NC(=O)Nc2ccc(Cl)cc2)sc2c1CC1CCC2N1 (racemic) [Example 122, (+/−)-2-[3-(4-chlorophenyl)ureido]-5,6,7,8-tetrahydro-4H-5,8-epiminocyclohepta[b]thiophene-3-carboxamide hydrochloride] | 91 | < 1 | – | – |
| C[N+]1(CC2CCC2)CCc2c(sc(NC(=O)Nc3ccc(Cl)cc3)c2C(N)=O)C1 (centres unmarked) [Example 145, 3-Carbamoyl-2-[3-(4-chlorophenyl)ureido]-6-(cyclobutylmethyl)-6-methyl-4,5,6,7-tetrahydrothieno[2,3-c]pyridin-6-ium iodide] | – | < 1 | 95 | – |
| CN(C)C(=O)CCC[N+]1(C)CCc2c(sc(NC(=O)Nc3ccc(Cl)cc3)c2C(N)=O)C1 (centres unmarked) [Example 165, 3-Carbamoyl-2-[3-(4-chlorophenyl)ureido]-6-[4-(dimethylamino)-4-oxobutyl]-6-methyl-4,5,6,7-tetrahydrothieno[2,3-c]pyridin-6-ium trifluoroacetate] | – | 1 to 10 | – | 52 |
| CCN1CCc2c(sc(NC(=O)Nc3ccc(Cl)cc3)c2C(=O)NCC2CC2)C1 [Example 97, 2-[3-(4-Chlorophenyl)ureido]-N-(cyclopropylmethyl)-6-ethyl-4,5,6,7-tetrahydrothieno[2,3-c]pyridine-3-carboxamide hydrochloride] | – | – | 37 | – |

Source: US9416141B2 (University of Washington through its Center for …, priority 2012, dated 2016)
